Reference: ChEMBL document CHEMBL1649156, “Antianaerobic activity of sulopenem compared to six other agents” (2009)
≈ marks a conversion by molar mass, not a printed value.

Tests used:
Type in all cases: functional
Hoylesella oralis = test: Antimicrobial activity in Prevotella oralis group by CLSI agar dilution method
Prevotella buccae = test: Antimicrobial activity in Prevotella buccae by CLSI agar dilution method; details: Segatella buccae
Bacteroides fragilis [1] = test: Antimicrobial activity in Bacteroides fragilis by CLSI agar dilution method
Fusobacterium nucleatum = test: Antimicrobial activity in Fusobacterium nucleatum by CLSI agar dilution method
Anaerococcus prevotii = test: Antimicrobial activity in Anaerococcus prevotii by CLSI agar dilution method
Clostridium sp. = test: Antimicrobial activity in Clostridium sp. by CLSI agar dilution method
Bifidobacterium = test: Antimicrobial activity in Bifidobacterium by CLSI agar dilution method
Prevotella nigrescens = test: Antimicrobial activity in Prevotella nigrescens by CLSI agar dilution method
Anaerococcus tetradius = test: Antimicrobial activity in Anaerococcus tetradius by CLSI agar dilution method
Fusobacterium varium = test: Antimicrobial activity in Fusobacterium varium by CLSI agar dilution method
[2] = test system: Enterocloster clostridioformis; test: Antimicrobial activity in Clostridium clostridioforme by CLSI agar dilution method
Bacteroides fragilis [3] = test: Antimicrobial activity in Bacteroides fragilis ATCC 25285 by CLSI agar dilution method
[4] = test system: Bacteroides thetaiotaomicron; test: Antimicrobial activity in Bacteroides thetaiotaomicron by CLSI agar dilution method
Hoylesella loescheii = test: Antimicrobial activity in Prevotella loescheii by CLSI agar dilution method
[5] = test system: Parabacteroides distasonis; test: Antimicrobial activity in Bacteroides distasonis by CLSI agar dilution method
Prevotella baroniae = test: Antimicrobial activity in Prevotella baroniae by CLSI agar dilution method; details: Segatella baroniae
Clostridium butyricum = test: Antimicrobial activity in Clostridium butyricum by CLSI agar dilution method
Actinomyces = test: Antimicrobial activity in Actinomyces by CLSI agar dilution method
Bacteroides stercoris = test: Antimicrobial activity in Bacteroides stercoris by CLSI agar dilution method
Clostridium cadaveris = test: Antimicrobial activity in Clostridium cadaveris by CLSI agar dilution method
Tissierella praeacuta = test: Antimicrobial activity in Clostridium hastiforme by CLSI agar dilution method
Clostridioides difficile = test: Antimicrobial activity in Clostridium difficile by CLSI agar dilution method
Prevotella disiens = test: Antimicrobial activity in Prevotella disiens by CLSI agar dilution method
Prevotella denticola = test: Antimicrobial activity in Prevotella denticola by CLSI agar dilution method
Prevotella bergensis = test: Antimicrobial activity in Prevotella bergensis by CLSI agar dilution method; details: Hallella bergensis
Prevotella sp. = test: Antimicrobial activity in Prevotella sp.by CLSI agar dilution method
Phocaeicola vulgatus = test: Antimicrobial activity in Bacteroides vulgatus by CLSI agar dilution method
Eggerthella lenta [6] = test: Antimicrobial activity in Eggerthella lenta ATCC 43055 by CLSI agar dilution method
[7] = test system: Paraclostridium bifermentans; test: Antimicrobial activity in Clostridium bifermentans by CLSI agar dilution method
Lactobacillus = test: Antimicrobial activity in Lactobacillus by CLSI agar dilution method
Prevotella corporis = test: Antimicrobial activity in Prevotella corporis by CLSI agar dilution method
Parvimonas micra = test: Antimicrobial activity in Micromonas micros by CLSI agar dilution method
Finegoldia magna = test: Antimicrobial activity in Finegoldia magna by CLSI agar dilution method
Prevotella salivae = test: Antimicrobial activity in Prevotella salivae by CLSI agar dilution method; details: Segatella salivae
Clostridium tertium = test: Antimicrobial activity in Clostridium tertium by CLSI agar dilution method
Cutibacterium acnes = test: Antimicrobial activity in Propionibacterium acnes by CLSI agar dilution method
[8] = test system: Porphyromonas asaccharolytica; test: Antimicrobial activity in Porphyromonas asaccharolytica by CLSI agar dilution method
[9] = test system: Peptoniphilus asaccharolyticus; test: Antimicrobial activity in Peptoniphilus asaccharolyticus by CLSI agar dilution method
Eggerthella lenta [10] = test: Antimicrobial activity in Eggerthella lenta by CLSI agar dilution method
Bacteroides uniformis = test: Antimicrobial activity in Bacteroides uniformis by CLSI agar dilution method
Prevotella veroralis = test: Antimicrobial activity in Prevotella veroralis by CLSI agar dilution method
[Clostridium] innocuum = Antimicrobial activity in Clostridium innocuum by CLSI agar dilution method
[11] = test system: Paeniclostridium sordellii; test: Antimicrobial activity in Clostridium sordellii by CLSI agar dilution method; details: Paraclostridium sordellii
Porphyromonas gingivalis = test: Antimicrobial activity in Porphyromonas gingivalis by CLSI agar dilution method
[12] = test system: Fusobacterium necrophorum; test: Antimicrobial activity in Fusobacterium necrophorum by CLSI agar dilution method
[13] = test system: Bacteroides thetaiotaomicron; test: Antimicrobial activity in Bacteroides thetaiotaomicron ATCC 29741 by CLSI agar dilution method
Prevotella bivia = test: Antimicrobial activity in Prevotella bivia by CLSI agar dilution method
[14] = test system: Prevotella melaninogenica; test: Antimicrobial activity in Prevotella melaninogenica by CLSI agar dilution method
[15] = test system: Peptostreptococcus anaerobius; test: Antimicrobial activity in Peptostreptococcus anaerobius by CLSI agar dilution method
Prevotella intermedia = test: Antimicrobial activity in Prevotella intermedia by CLSI agar dilution method
Clostridium perfringens = test: Antimicrobial activity in Clostridium perfringens by CLSI agar dilution method
Thomasclavelia ramosa = test: Antimicrobial activity in Clostridium ramosum by CLSI agar dilution method
Bacteroides ovatus = test: Antimicrobial activity in Bacteroides ovatus by CLSI agar dilution method
Fusobacterium mortiferum = test: Antimicrobial activity in Fusobacterium mortiferum by CLSI agar dilution method

C[C@@H](O)[C@H]1C(=O)N2C(C(=O)O)=C(S[C@H]3CC[S@@+]([O-])C3)S[C@H]12 [SULOPENEM]
MIC (Hoylesella oralis): ≤ 0.016 µg/mL | MIC50 (Prevotella buccae): 0.125 µg/mL (≈ 0.358 µM) | MIC90 (Prevotella buccae): 0.25 µg/mL (≈ 0.715 µM) | MIC50 (Bacteroides fragilis [1]): 0.125 µg/mL (≈ 0.358 µM) | MIC90 (Bacteroides fragilis [1]): 0.5 µg/mL (≈ 1.43 µM) | MIC (Fusobacterium nucleatum): ≤ 0.016 µg/mL | MIC50 (Fusobacterium nucleatum): ≤ 0.016 µg/mL | MIC90 (Fusobacterium nucleatum): 0.03 µg/mL (≈ 0.0858 µM) | MIC (Anaerococcus prevotii): 0.03 µg/mL (≈ 0.0858 µM) | MIC50 (Clostridium sp.): 2 µg/mL (≈ 5.72 µM) | MIC90 (Clostridium sp.): 4 µg/mL (≈ 11.4 µM) | MIC50 (Bifidobacterium): 0.25 µg/mL (≈ 0.715 µM) | MIC90 (Bifidobacterium): 1 µg/mL (≈ 2.86 µM) | MIC50 (Prevotella nigrescens): 0.06 µg/mL (≈ 0.172 µM) | MIC90 (Prevotella nigrescens): 0.125 µg/mL (≈ 0.358 µM) | MIC50 (Anaerococcus tetradius): 0.125 µg/mL (≈ 0.358 µM) | MIC90 (Anaerococcus tetradius): 0.25 µg/mL (≈ 0.715 µM) | MIC50 (Fusobacterium varium): 0.5 µg/mL (≈ 1.43 µM) | MIC90 (Fusobacterium varium): 0.5 µg/mL (≈ 1.43 µM) | MIC [2]: 1 µg/mL (≈ 2.86 µM) | MIC (Bacteroides fragilis [3]): 0.06 µg/mL (≈ 0.172 µM) | MIC [4]: 0.25 µg/mL (≈ 0.715 µM) | MIC50 [4]: 0.25 µg/mL (≈ 0.715 µM) | MIC90 [4]: 0.5 µg/mL (≈ 1.43 µM) | MIC (Hoylesella loescheii): 0.125 µg/mL (≈ 0.358 µM) | MIC50 [5]: 0.5 µg/mL (≈ 1.43 µM) | MIC90 [5]: 1 µg/mL (≈ 2.86 µM) | MIC (Prevotella baroniae): 0.06 µg/mL (≈ 0.172 µM) | MIC (Clostridium butyricum): 0.5 µg/mL (≈ 1.43 µM) | MIC (Actinomyces): 0.25 µg/mL (≈ 0.715 µM) | MIC50 (Actinomyces): 0.5 µg/mL (≈ 1.43 µM) | MIC (Bacteroides stercoris): 0.25 µg/mL (≈ 0.715 µM) | MIC50 (Bacteroides stercoris): 0.25 µg/mL (≈ 0.715 µM) | MIC (Clostridium cadaveris): 0.25 µg/mL (≈ 0.715 µM) | MIC (Tissierella praeacuta): 2 µg/mL (≈ 5.72 µM) | MIC (Clostridioides difficile): 2 µg/mL (≈ 5.72 µM) | MIC50 (Clostridioides difficile): 2 µg/mL (≈ 5.72 µM) | MIC90 (Clostridioides difficile): 4 µg/mL (≈ 11.4 µM) | MIC (Prevotella disiens): 0.03 µg/mL (≈ 0.0858 µM) | MIC50 (Prevotella disiens): 0.125 µg/mL (≈ 0.358 µM) | MIC50 (Prevotella denticola): 0.125 µg/mL (≈ 0.358 µM) | MIC90 (Prevotella denticola): 0.25 µg/mL (≈ 0.715 µM) | MIC (Prevotella bergensis): 0.125 µg/mL (≈ 0.358 µM) | MIC (Prevotella sp.): 0.03 µg/mL (≈ 0.0858 µM) | MIC50 (Phocaeicola vulgatus): 0.5 µg/mL (≈ 1.43 µM) | MIC90 (Phocaeicola vulgatus): 1 µg/mL (≈ 2.86 µM) | MIC (Eggerthella lenta [6]): 0.06 µg/mL (≈ 0.172 µM) | MIC [7]: 0.5 µg/mL (≈ 1.43 µM) | MIC50 (Lactobacillus): > 8 µg/mL | MIC90 (Lactobacillus): > 8 µg/mL | MIC (Prevotella corporis): 0.03 µg/mL (≈ 0.0858 µM) | MIC50 (Prevotella corporis): 0.06 µg/mL (≈ 0.172 µM) | MIC (Parvimonas micra): 0.125 µg/mL (≈ 0.358 µM) | MIC50 (Parvimonas micra): 0.125 µg/mL (≈ 0.358 µM) | MIC90 (Parvimonas micra): 0.125 µg/mL (≈ 0.358 µM) | MIC50 (Finegoldia magna): 0.25 µg/mL (≈ 0.715 µM) | MIC90 (Finegoldia magna): 0.25 µg/mL (≈ 0.715 µM) | MIC (Prevotella salivae): 0.06 µg/mL (≈ 0.172 µM) | MIC (Clostridium tertium): 1 µg/mL (≈ 2.86 µM) | MIC50 (Clostridium tertium): 1 µg/mL (≈ 2.86 µM) | MIC (Cutibacterium acnes): 0.125 µg/mL (≈ 0.358 µM) | MIC50 (Cutibacterium acnes): 0.125 µg/mL (≈ 0.358 µM) | MIC90 (Cutibacterium acnes): 0.25 µg/mL (≈ 0.715 µM) | MIC [8]: ≤ 0.016 µg/mL | MIC [9]: 0.03 µg/mL (≈ 0.0858 µM) | MIC50 [9]: 0.06 µg/mL (≈ 0.172 µM) | MIC (Eggerthella lenta [10]): 1 µg/mL (≈ 2.86 µM) | MIC50 (Eggerthella lenta [10]): 1 µg/mL (≈ 2.86 µM) | MIC90 (Eggerthella lenta [10]): 1 µg/mL (≈ 2.86 µM) | MIC (Bacteroides uniformis): 0.25 µg/mL (≈ 0.715 µM) | MIC50 (Bacteroides uniformis): 0.25 µg/mL (≈ 0.715 µM) | MIC (Prevotella veroralis): 0.06 µg/mL (≈ 0.172 µM) | MIC ([Clostridium] innocuum): 0.25 µg/mL (≈ 0.715 µM) | MIC [11]: 0.125 µg/mL (≈ 0.358 µM) | MIC (Porphyromonas gingivalis): 0.03 µg/mL (≈ 0.0858 µM) | MIC [12]: ≤ 0.016 µg/mL | MIC50 [12]: ≤ 0.016 µg/mL | MIC [13]: 0.06 µg/mL (≈ 0.172 µM) | MIC50 (Prevotella bivia): 0.125 µg/mL (≈ 0.358 µM) | MIC90 (Prevotella bivia): 0.25 µg/mL (≈ 0.715 µM) | MIC50 [14]: 0.125 µg/mL (≈ 0.358 µM) | MIC90 [14]: 0.25 µg/mL (≈ 0.715 µM) | MIC50 [15]: 0.5 µg/mL (≈ 1.43 µM) | MIC90 [15]: 2 µg/mL (≈ 5.72 µM) | MIC50 (Prevotella intermedia): 0.06 µg/mL (≈ 0.172 µM) | MIC90 (Prevotella intermedia): 0.125 µg/mL (≈ 0.358 µM) | MIC50 (Clostridium perfringens): 0.125 µg/mL (≈ 0.358 µM) | MIC90 (Clostridium perfringens): 0.25 µg/mL (≈ 0.715 µM) | MIC (Thomasclavelia ramosa): 0.5 µg/mL (≈ 1.43 µM) | MIC (Bacteroides ovatus): 0.25 µg/mL (≈ 0.715 µM) | MIC50 (Bacteroides ovatus): 0.25 µg/mL (≈ 0.715 µM) | MIC90 (Bacteroides ovatus): 0.5 µg/mL (≈ 1.43 µM) | MIC50 (Fusobacterium mortiferum): 0.5 µg/mL (≈ 1.43 µM) | MIC90 (Fusobacterium mortiferum): 0.5 µg/mL (≈ 1.43 µM)
